Here are results for three compounds from patent US20100204142A1, “USE OF THE PEPTIDE PHPFHLFVY (RENIN INHIBITOR) AS A THERAPEUTIC AGENT” (priority 2007, published 2010).

Where no end group is shown, it is not given here.

Data set [1] has as its system HepG2-2.2.15 cells. As to the kind of experiment: Cytotoxicity in HepG2-2.2.15 cells (dye uptake). It counts as cell-based. Conditions: dye uptake assay, % cell control. The method, then:
HepG2-2.2.15 cells were plated in 96-well microtiter plates. After 16-24 hours the confluent monolayer of HepG2-2.2.15 cells was washed and the medium was replaced with complete medium containing test peptide—10 micrograms per ml—in duplicate. Lamivudine (3TC) was used as the positive control, while media alone was added to the cells as a negative control (virus control). Three days later the culture medium was replaced with fresh medium containing the peptide. Six days following the initial administration of the peptide, the cell culture supernatants was collected, treated with pronase and DNAse and then used in a real-time quantitative TaqMan PCR assay. The PCR-amplified HBV DNA was detected in real-time by monitoring increases in fluorescence signals that result from the exonucleolytic degradation of a quenched fluorescence probe molecule that hybridizes to the amplified HBV DNA. For each PCR amplification, a standard curve was simultaneously generated using dilutions of purified HBV DNA. Antiviral activity was calculated from the reduction in HBV DNA levels (% virus control). A novel dye uptake assay was then employed to measure cell viability, which is used to calculate toxicity (% cell control).

In data set [2] the test system is HIV-1 infected CEM-SS cells (strain HIV-1IIIB). As to the kind of experiment: HIV-1 antiviral assay (CPE reduction, MTS). Format: cell-based. As to conditions: peptide 10 micrograms per ml, 6 days post-infection.
Data set [3] has as its system CEM-SS cells. As to the kind of experiment: Cytotoxicity in CEM-SS cells (MTS). As to conditions: CEM-SS cells plus peptide only, peptide 10 micrograms per ml.
Data set [4] is described as follows: in vitro. Conditions: human, MRC-5 cells. It counts as cell-based. How it is done: The following day, peptide was added and tested in duplicates.
In data set [5] the test system is Pseudomonas aeruginosa. Format: cell-based. As to conditions: 5 micrograms per ml.
In data set [6] the test system is Streptococcus pneumoniae. Format: cell-based. Conditions: 5 micrograms per ml.
The test system of data set [7] is MRSA. As to conditions: 5 micrograms per ml.

With `Nc1ccn([C@@H]2CS[C@H](CO)O2)c(=O)n1` [3TC, Lamivudine, reference compound], the “% Cell viability” value in data set [1] worked out at 95.8%.

Take `Cc1cn([C@H]2C[C@H](N=[N+]=[N-])[C@@H](CO)O2)c(=O)[nH]c1=O` [AZT]: the “% CPE reduction in HIV-1 infected CEM-SS cells” value in data set [2] stood at 99%. Also, the “% Cell viability” value in data set [3] is on record as 97%.

With PHPFHLFVY-OH [Renin inhibitor], the viability (in general, a read-out of living cells in per cent, often relative to untreated cells) at 144 h in data set [4] amounted to 100%. The “% inhibition” value in data set [5], in data set [6] and in data set [7] was 0.0% each time.
